The values below come from patent US9504751B2, “Stable pharmaceutical composition” (EVERFRONT BIOTECH INC., priority 2014, dated 2016).

As usually defined, the solubility is the dissolved amount per volume that the medium holds. As a reminder, the IC50 is the point on the concentration scale where inhibition reaches its midpoint.

In brackets after ≈: the same amount, converted by molar mass. A value given as a limit tells only on which side of the number the result lay.

Data set [1] is described as follows: Droplet size, electrical conductivity and zeta potential analyses. Conditions: sample with n-butylidenephthalide 200 μg/mL. It is filed as physicochemical. On the procedure: The pharmaceutical composition was formulated to provide a sample in which the concentration of n-butylidenephthalide is 200 μg/mL. The droplet size, electrical conductivity and zeta potential of the sample were analyzed using a high concentration nano-droplet size and zeta potential meter (Malvern Nano-ZS ZEN-3600).

The nature of data set [2]: In vitro cell line permeation test. It is filed as in vitro ADME, human. The note with it: human, RPMI 2650 cellular monolayer, 37° C., read-out: Peff ± SD. On the procedure:
(§1) [formula] V: Capacity of receptor chamber (mL) C0: Initial supplied concentration of drug (μg/mL) Peff: Permeability coefficient (cm/s) J: Flux (μg/cm^2·s) A: Superficial area of diffusion (cm^2)
(§2) [formula] Change of the concentration along with time under a stable status (μg/mLs)
(§3) RPMI 2650 cells (i.e., a human nasal septum squamous cell line) were seeded in a collagen-coated cell insert with 0.4 μm pore size and cultured for 2 days to lead the cells to form a cellular monolayer on the insert. The cell insert was then transferred into a 12-well plate with 1.5 mL of Hepes buffer inside. 0.5 mL of Hepes buffer containing pure n-butylidenephthalide or the pharmaceutical composition was added into the 12-well plate. Next, the 12-well plate was placed into an incubator (37° C., 5% CO2) and incubated. The buffer in each well of the 12-well plate was collected every 1 hour (6 hours in total), and the absorption spectrum of the sampled buffer was detected by a spectrophotometer at […] wavelength to calculate the concentration of n-butylidenephthalide or the pharmaceutical composition. The permeability coefficient (Peff) and flux (J) were calculated by using the above Formula 1 and Formula 2.

In the next data set the test system is RPMI 2650 cells. Briefly: In vitro cell line permeation test. It is filed as in vitro ADME, human. Conditions: RPMI 2650 cellular monolayer, 37° C., 6 hours. On the procedure:
as §1, §2, §3

Data set [3] in a line: Viscosity analysis (AR2000 rheometer). It is filed as physicochemical. The procedure:
The viscosity analysis was performed by measuring the relationship of viscosity of a sample to shear rate and rheological property of the sample using AR2000 rheometer (stress control) (from TA Instruments; measuring mold: cone and plate; amount of sample: 1 mL).

Data set [4] is described as follows: Solubility of n-butylidenephthalide in solvents. It is filed as physicochemical. The note with it: organic solvent or mixture.
Data set [5] concerns 9 L (rat brain gliosarcoma cell line) tumor tissue. Briefly: Intranasal treatment of rats with intracranially transplanted 9 L tumor. It is filed as in vivo. On the procedure:
9 L (i.e., a rat brain gliosarcoma cell line) tumor tissue was intracranially transplanted into rats. The test of drug treatment was conducted after the intracranial tumor formed. The test method includes: (i) using 400 mg/kg of chloral hydrate (Sigma-Aldrich Company Ltd.) to anesthetize the rats, shaving the hair on the head of rats after the rats were in a coma, and fixing the rats in a stereotaxic instrument (Lab Standard™ Stereotaxic Instrument); (ii) scissoring the scalp by shears to expose the cranium, setting the bregma as a center, and drilling a 5 mm hole at the positioned drilling site 3 mm right to and 5 mm below the bregma on the cranium by a drill; (iii) clamping the prepared 9 L tumor tissue (1×1×1 mm^3) by a forceps and transplanting it into 3 mm depths within the brain, and then, resting for 1 minute to coagulate the blood, removing the forceps, and coating the bone wax on the hole, lastly, suturing the scalp of rats and administering the rats with antibiotics; (iv) 7 days after the transplantation of tumor tissue, randomly grouping the rats as the following Table 11, and then, sucking a drug (n-butylidenephthalide (BP) or pharmaceutical composition 5) by a pipette and dropping the drug into the nasal cavity of the rats to conduct an intranasal administration, and repeating the administration for 30 days and recording the body weight of rats and the number of dead rats during this medical treatment; and (v) removing the tumor, and then, measuring the length-breadth of tumor by an electronic vernier caliper and calculating the total volume of tumor by using the following Formula 3, measuring the weight of tumor at the same time, and drawing the obtained values into a bar diagram and a curve diagram, to determine the therapeutic effect.

The next data set relates to GBM 8401 cells. Put plainly: Cytotoxicity test (IC50 value), MTT cell survival assay. It is filed as cell-based. The note with it: Homo sapiens, 24 hours. On the procedure:
GBM 8401 cells (i.e., a human brain glioblastoma multiforme cell line) were cultured in a 96-well culture plate with a cell number of 6×10^3 per well, and treated with pure n-butylidenephthalide (BP) or one of the pharmaceutical compositions for 24 hours. The treatment concentrations of active ingredient, n-butylidenephthalide (BP), were 0 μg/mL (i.e., control group), 12.5 μg/mL, 25 μg/mL, 50 μg/mL, 100 μg/mL and 200 μg/mL, respectively. Then, the half maximal inhibitory concentration (IC50) of each pharmaceutical composition to GBM 8401 cells was analyzed by MTT (3-(4,5-cimethylthiazol-2-yl)-2,5-diphenyl tetrazolium bromide) cell survival assay, to evaluate the cytotoxic effect.
A general note: Formazan colour is commonly taken as a measure of viable cells.

The nature of data set [6]: In vitro artificial cellulose membrane test (Franz diffusion device). It is filed as in vitro ADME. The note with it: 37° C., 10 hours. The procedure:
A Franz diffusion device (SUNMEI instruments Co., Ltd, Taiwan) shown in FIG. 5 was used to estimate the ability of pure n-butylidenephthalide (BP) liquid and the pharmaceutical compositions to permeate trough the artificial cellulose membrane, to simulate their permeation through a nasal mucosa. The superficial area of diffusion of the device is about 4.5 cm^2, and the capacity volume of receptor chamber of the device is about 23 mL. […]

Data set [7] can be described thus: Room-temperature stability test: appearance of the composition. It is filed as physicochemical. The note with it: PBS. The procedure:
The stability study of the pharmaceutical composition was performed by: (1) observing the appearance of the pharmaceutical composition after storage at room temperature for 3 or 7 days, and classifying the results into “V” (if the pharmaceutical composition remained homogeneous) and “X” (if the pharmaceutical composition separated into two layers or had precipitation) to evaluate the appearance stability; and (2) analyzing the purity of n-butylidenephthalide by measuring the impurities in the pharmaceutical composition through relative retention time (RRT) using a LCMS instrument with the following conditions.

In data set [1], `CCCC=C1OC(=O)c2ccccc21` [Pure BP, n-butylidenephthalide] registered an Electrical conductivity of 0.02 mS/cm. The compound further displayed a Zeta potential in data set [1] of 0.38 mV. Besides, the Papp at 6 h in [2] was found to be 1.59 ± 0.09 ×10⁻⁶ cm/s. Further, the results for the “Flux ± SD” value (in the data set on RPMI 2650 cells; in data set [6]) were 0.32 ± 0.02 10^−3 μg/cm^2 · s and 2.29 ± 0.23 10^−3 μg/cm^2 · s, respectively. Further, the “Average viscosity ± SD” value in [3] (cone and plate, 1 mL sample) is 1.57 ± 0.01 ×10^−2 Pa · s. The “Rheological property (Newtonian or non-Newtonian fluid)” value in [3] (viscosity versus shear rate) is listed as “Newtonian fluids”. In addition, the solubility in [4] (in ethanol) is > 222 mg/mL; in [4] (in polyethylene glycol 400, polyethylene glycol 300 or polypropylene glycol) it was 70 to 120 mg/mL (≈ 372 to 638 mM). Besides, in data set [5] (160 mg/kg or 320 mg/kg, compared to control group), the Growth of tumor entry is reported as “effective in inhibiting the growth of tumor”. Moreover, in data set [5] (160 mg/kg, 30 days), the Survival rate result is “significantly increased and similar survival rates”. For the same compound, in data set [5] (160 mg/kg, 30 days), the “Volume and weight of tumor” value is “significantly reduced and similar volume and weight of tumor”. The IC50 in the data set on GBM 8401 cells is 70 µg/mL (≈ 0.372 mM). Moreover, the “Peff ± SD” value in [6] is 0.76 ± 0.08 10^−6 cm/s. The “Amount stable in the medium system” value in data set [7] (polyethoxylated castor oil, and ethanol with polypropylene glycol) is “up to 208 mg/mL”; in [7] (polyethoxylated castor oil, and polyethylene glycol with dimethyl sulfoxide or with ethanol (Examples 1, 5 and 6)), “up to 1000 mg/mL”.
